According to US9844546B2, “Antibody against human HIF hydroxylase” (OXFORD UNIVERSITY INNOVATION LIMITED, priority 2001, dated 2017):

Experiments:
HIF-1α/pVHL interaction = molecular target: T1, HIF-1α/pVHL interaction (Homo sapiens, UniProt P40337); test: Polypeptide blocking assay of HIF-1α and pVHL.HA IVTT mixture, anti-HA immunoprecipitation; type: binding; conditions: cell extract supplemented with Fe(II)
T1 construct: made in house; host or cells: TNT rabbit reticulocyte lysate (Promega), in vitro transcription/translation
T1 sequence (P40337 whole entry): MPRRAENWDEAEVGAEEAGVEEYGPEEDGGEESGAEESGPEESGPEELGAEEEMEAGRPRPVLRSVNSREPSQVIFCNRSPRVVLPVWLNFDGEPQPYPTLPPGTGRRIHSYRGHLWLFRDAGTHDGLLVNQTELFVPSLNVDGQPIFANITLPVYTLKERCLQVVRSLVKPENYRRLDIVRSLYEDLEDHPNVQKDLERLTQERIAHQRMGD
Experimental: Further studies were performed using synthetic polypeptides as inhibitors of the HIF-1α/pVHL interaction (23). […] Results for a series of polypeptides derived from this domain are summarized in FIG. 1B and implicate a similar minimal interaction domain. […] This polypeptide comprises HIF-1α polypeptide residues 556 to 574 and its ability to block binding following exposure to a variety of direct oxidation conditions was assessed.
We synthesized a polypeptide (HIF-1α residues 556-574), containing a trans-4-hydroxy-S-proline residue at position 564 (19:Pro564Hyp), since the trans-4-hydroxylation is the commonest enzymatic proline oxidation (25). A polypeptide blocking assay was carried out using the 19:Pro564Hyp modified polypeptide and, as a control, the unmodified polypeptide without the trans-4-hydroxylation (19:WT). The 19:WT polypeptide was either incubated with cell extract before the binding assay or was untreated. The 19:Pro564Hyp polypeptide was added to a mixture of HIF-1α and pVHL-HA IVTTs at a concentration of 1, 0.25, 0.05 or 0.01 μM and the cell extract treated or untreated 19:WT polypeptide at a concentration of 0.5 μM. Interaction of HIF-1α with pVHL was then assayed by anti-HA immunoprecipitation. […] A pVHL capture assay was then carried out using biotinylated synthetic polypeptides. The same polypeptides, 19:Pro564Hyp and 19:WT were assessed for the ability to capture wild type or mutant (Pro86His) pVHL. […] In both cases capture was specific for wild type, as opposed to mutant, pVHL.
• 1. G. L. Semenza, Genes Dev 14, 1983-91. (2000). • 2. N. V. Iyer, et al., Genes Dev. 12, 149-162 (1997). • 3. E. Maltepe, J. V. Schmidt, D. Baunoch, C. A. Bradfield, M. C. Simon, Nature 386, 403-407 (1997). • 4. G. L. Wang, B.-H. Jiang, E. A. Rue, G. L. Semenza, Proc. Natl. Acad. Sci. USA 92, 5510-5514 (1995). • 5. S. Salceda, J. Caro, J. Biol. Chem. 272, 22642-22647 (1997). • 6. L. E. Huang, J. Gu, M. Schau, H. F. Bunn, Proc. Natl. Acad. Sci. USA 95, 7987-7992 (1998). • 7. M. S. Wiesener, et al., Blood 92, 2260-2268 (1998). • 8. P. H. Maxwell, et al., Nature 399, 271-275 (1999). • 9. K. Iwai, et al., Proc. Natl. Acad. Sci. USA 96, 12436-12441 (1999). • 10. J. Lisztwan, G. Imbert, C. Wirbelauer, M. Gstaiger, W. Krek, Genes Dev 13, 1822-33 (1999). • 11. M. E. Cockman, et al., J Biol Chem (2000). • 12. M. Ohh, et al., Nat Cell Biol 2, 423-7. (2000). • 13. T. Kamura, et al., Proc Natl Acad Sci USA 97, 10430-5. (2000). • 14. K. Tanimoto, Y. Makino, T. Pereira, L. Poellinger, Embo J 19, 4298-309. (2000). • 15. M. A. Goldberg, S. P. Dunning, H. F. Bunn, Science 242, 1412-1415 (1988). • 16. G. L. Wang, G. L. Semenza, Blood 82, 3610-3615 (1993). • 17. G. L. Semenza, Cell 98, 281-284 (1999). • 18. Hypoxia (<0.1% oxygen) was obtained in a workstation with O2, CO2 and temperature control (Ruskinn Technologies, Leeds, UK). For hypoxic harvest, buffers were preincubated in the chamber overnight. RCC4-VHL.HA, labelling conditions and co-immunoprecipitation assays have been described previously (11); in the current study 12.5 μM MG132 was used for proteasomal inhibition. For standard harvest, the cells were removed from the chamber after hypoxic exposure, prior to cell lysis. Co-immunoprecipitation assays on all lysates were performed at 4° C. under ambient oxygen conditions. […] When programming in hypoxia, reaction mix was preincubated in the workstation for 10 minutes before addition of the DNA template. […]

[1] = system: cytoplasmic extract-dependent modification of the 5′ VHL E3 target site; test: Peptide competition of cytoplasmic extract-dependent modification of GAL-HIF-1α 344-553, in vitro VHL E3 ubiquitylation; type: biochemical, human; conditions: 12.5 μM peptide, RCC4 cytoplasmic extract
Experimental: The E1 activating enzyme used in ubiquitylation assays was either obtained from Affiniti Research (Exeter, UK) or purified from BL21 (DE3) E. coli transfected with plasmid expressing His6-tagged mouse E1. His6-E1 was purified by Ni^2+-agarose affinity chromatography. After dialysis against phosphate buffered saline, glycerol was added to 10% (vol/vol) and 25 ng/μl aliquots stored at −80° C. Human CDC34 recombinant E2 enzyme was from Affiniti Research (Exeter, UK). VHL E3 was obtained by anti-HA immunoprecipitation from stably transfected 7860-VHLHA cell lysates (Iliopoulos et al). GAL-HIF-1α substrate was prepared by anti-GAL immunoprecipitation from [^35S] methionine-labeled TnT rabbit reticulocyte (Promega) translates. Each 40 μl ubiquitylation reaction consisted of 4 μl of 5 mg/ml ubiquitin, 4 μl of 10×ATP regenerating system (20 mM Tris pH7.5, 10 mM ATP, 10 mM magnesium acetate, 300 mM creatine phosphate, 0.5 mg/ml creatine phosphokinase), 2 μl, E1, 3 μl E2, 6 μl VHL E3 immunopurified on protein G sepharose, 6 μl GAL-HIF-1α substrate immunopurified on agarose beads. Reactions were incubated at 30° C. for 2 h with occasional mixing, stopped by the addition of SDS sample buffer and analysed by SDS-PAGE and autoradiography. Cytoplasmic extract-based ubiquitylation assays have been previously described (Cockman).
It has been shown above that the 3′ VHL E3 target site responds to oxygen level via hydroxylation at proline residue 564. This praline residue forms part of a potential motif conserved between the 5′ and 3′ target sites. Mutation of the corresponding proline residue (P402A) in the 5′ target site also results in functional inactivation. It was possible therefore that proline residue 402 was also a target for regulatory hydroxylation, To test this we asked whether polypeptides corresponding to the 3′ VHL E3 target site could interfere with the cytoplasmic extract-dependent modification of the 5′ VHL E3 target site. […]

HIF-α/pVHL interaction = test: Interaction of HIF-1α and pVHL.HA reticulocyte IVTTs, anti-HA co-immunoprecipitation; type: biochemical, human; conditions: 100 μM added to the HIF-1α IVTT
Experimental: ^35S-Methionine labelled […] subunits and pVHL.HA were produced separately by IVTT (in vitro transcription and translation) in reticulocyte lysates. IVTTs were performed under different conditions, mixed, and assayed for interaction by anti-HA co-immunoprecipitation. These in vitro assays allowed analysis of the HIFα/pVHL interaction using the recombinant proteins.
Labelled HIF-1α and pVHL.HA were generated separately in reticulocyte lysates (IVTT), in the presence or absence of Co (II), desferrioxamine, or Fe(II). Lysates were mixed in various combinations, and interactions assayed by anti-HA immunoprecipitation.
• 1. G. L. Semenza, Genes Dev 14, 1983-91. (2000). • 2. N. V. Iyer, et al., Genes Dev. 12, 149-162 (1997). • 3. E. Maltepe, J. V. Schmidt, D. Baunoch, C. A. Bradfield, M. C. Simon, Nature 386, 403-407 (1997). • 4. G. L. Wang, B.-H. Jiang, E. A. Rue, G. L. Semenza, Proc. Natl. Acad. Sci. USA 92, 5510-5514 (1995). • 5. S. Salceda, J. Caro, J. Biol. Chem. 272, 22642-22647 (1997). • 6. L. E. Huang, J. Gu, M. Schau, H. F. Bunn, Proc. Natl. Acad. Sci. USA 95, 7987-7992 (1998). • 7. M. S. Wiesener, et al., Blood 92, 2260-2268 (1998). • 8. P. H. Maxwell, et al., Nature 399, 271-275 (1999). • 9. K. Iwai, et al., Proc. Natl. Acad. Sci. USA 96, 12436-12441 (1999). • 10. J. Lisztwan, G. Imbert, C. Wirbelauer, M. Gstaiger, W. Krek, Genes Dev 13, 1822-33 (1999). • 11. M. E. Cockman, et al., J Biol Chem (2000). • 12. M. Ohh, et al., Nat Cell Biol 2, 423-7. (2000). • 13. T. Kamura, et al., Proc Natl Acad Sci USA 97, 10430-5. (2000). • 14. K. Tanimoto, Y. Makino, T. Pereira, L. Poellinger, Embo J 19, 4298-309. (2000). • 15. M. A. Goldberg, S. P. Dunning, H. F. Bunn, Science 242, 1412-1415 (1988). • 16. G. L. Wang, G. L. Semenza, Blood 82, 3610-3615 (1993). • 17. G. L. Semenza, Cell 98, 281-284 (1999). • 18. Hypoxia (<0.1% oxygen) was obtained in a workstation with O2, CO2 and temperature control (Ruskinn Technologies, Leeds, UK). For hypoxic harvest, buffers were preincubated in the chamber overnight. […]

[2] = system: HIF-α prolyl-hydroxylase (HIF-PH) of cell extract; test: Modifying activity (HIF-PH) of cell extract on HIF substrate (Gal/HIF-1α549-582/VP16 or 19:WT), pVHL capture assay; type: biochemical, mammalian; conditions: titration, cell extract
Experimental: The unlabelled HIF-1α substrate was immunopurified on beads, washed, and aliquots incubated under different test conditions in buffer or cell extract. After further washing, the beads were assayed for ability to interact with 35-S labelled pVHL IVTT (21) which was then visualised by fluorography.
The capture of labelled pVHL by different HIF substrates was monitored after exposure to various test conditions.
We went on to test a series of 2-oxoglutarate analogues which act as competitive inhibitors of this class of enzyme (29) for ability to inhibit HIF-PH as assessed by the ability of cell extracts to modify either HIF polypeptide (19:WT) or a HIF fusion protein (Gal/HIF-1α549-582/VP16) so as to promote pVHL capture. […] In one such experiment the effect of N-oxalylglycine on pVHL capture by a biotinylated HIF polypeptides as substrate was monitored. The WT:19 and 19:Pro564Hyp polypeptides described above were used as substrates. […] The effect of dimethyl-oxalyglycine on HIF-1α expression was also studied. HIF-1α immunoblot analysis of extracts of Hep3B and U2OS cells exposed to dimethyl-oxalylgylcine (0, 0.1 or 1.0 mM) for 6 hours was carried out. […]

Row | Molecule | blocking of HIF-1α/pVHL interaction by polypeptide after exposure to cell extract (HIF-1α/pVHL interaction) | competition of cytoplasmic extract effect on VHL-dependent ubiquitylation of GAL 344-553 [1] | capture of HIF-1α by pVHL.HA (HIF-α/pVHL interaction) | Fe(II) supplementation giving full activation of modifying activity [2]
1 | Pro564Gly: HIF-1α 556-574 polypeptide where the critical proline is mutated to glycine (DLDLEMLAGYIPMDDDFQL; UniProt Q16665 556-574, looked up, fragment P564G) | did not block | no effect | – | –
2 | [Cl][Fe][Cl] [Fe(II), ferrous chloride, reference compound] | – | – | greatly enhanced capture | 5 µM
